Here are results for two compounds from article PMC5515887, “Ruthenium-conjugated chrysin analogues modulate platelet activity, thrombus formation and haemostasis with enhanced efficacy” (Scientific Reports, 2017).

One assay relates to human washed platelets. Description: CRP-XL-induced aggregation of human washed platelets (optical aggregometry). Type of assay: cell-based. The following applies: CRP-XL 0.5 μg/mL. Here is the method: To determine the effects of chrysin and thio-chrysin and their Ru-complexes in the modulation of platelet activation, aggregation assays were performed using cross-linked collagen-related peptide (CRP-XL) as a platelet agonist, by optical aggregometry. Firstly, to determine the effects of chrysin and its derivatives on isolated platelets, aggregation assays were performed using human washed platelets (devoid of plasma proteins and other blood cells).
Figure 2 Effects of chrysin and its derivatives in washed platelet aggregation. […] The aggregation traces shown are representative of three separate experiments.
The preparation of human platelets and aggregation assays were performed using standard protocols as described by us previously, [16]. Briefly, human blood was collected in 3.2% citrate containing vacutainers via venepuncture from healthy, aspirin-free individuals with informed consent in accordance with the methods approved by the University of Reading Research Ethics Committee. All methods were performed in accordance with the relevant institutional and national guidelines and regulations. Blood samples were centrifuged at 102 g for 20 minutes at room temperature to separate the PRP, which was used in aggregation, flow cytometry, static platelet adhesion, calcium mobilisation and clot retraction assays. For the preparation of washed platelets, 50 mL of blood samples were mixed with 7.5 mL of ACD (acid citrate dextrose) (20 g/L glucose, 25 g/L sodium citrate and 15 g/L citric acid) and centrifuged at 102 g for 20 minutes at room temperature. The PRP was carefully aspirated from the other blood cells prior to mixing with 3 mL of ACD and centrifuging at 1413 g for 10 minutes at room temperature. The resulting platelet pellet was re-suspended in modified Tyrodes-HEPES buffer (2.9 mM KCl, 134 mM NaCl, 0.34 mM Na2HPO4.12H20, 1 mM MgCl2, 12 mM NaHCO3, 20 mM HEPES, pH 7.3) and washed by centrifuging again at 1413 g for 10 minutes. The resulting platelet pellet was suspended in modified Tyrodes-HEPES buffer at a density of 4 × 10^8 cells/mL for aggregation, dense granule secretion, cellular uptake studies and calcium mobilisation assays. Human platelet aggregation was performed using CRP-XL as an agonist in the presence and absence of various concentrations of chrysin and its synthetic derivatives by optical aggregometry. A vehicle control [DMSO at a concentration of less than 0.1% (v/v)] was included in all the experiments. Dense granule secretion in platelets was determined by measuring the ATP release using the luciferin-luciferase reagent by lumi-aggregometry (Chrono-Log, USA). SDS-PAGE and immunoblotting analysis were performed using standard protocols. The rabbit anti-phospho-specific antibodies for human AKT pS473, FAK pY397 and Src pY527 were obtained from Abcam, UK and rabbit anti-human 14-3-3ζ (Santa Cruz Biotechnology, USA) was used to detect protein 14-3-3ζ as a loading control in immunoblot assays. The Cy5-conjugated goat anti-rabbit IgG (Life technologies, UK) was used as the secondary antibody.

The test system of a further assay is haemostasis in mice. In words: Tail bleeding assay. It is filed as in vivo, C57BL/6 mice. The settings on record: final concentration 25 μM via femoral artery, 5 minutes before tail tip dissection, control 445 seconds. Here is the method:
Thrombus formation was monitored by capturing Z-stack fluorescent images at every 30 seconds over 10 minutes by fluorescence microscopy. The images shown (A) at different time points and traces (B) are representative of three separate experiments. […] Data represent ± S.D. (n = 8 mice in each group). The p values shown (*p < 0.05 and ***p < 0.001) are as calculated by non-parametric Mann-Whitney test using Graphpad Prism.
Following five minutes incubation, 1 mm of tail tip was dissected and the bleeding time was monitored.
The University of Reading Local Ethical Review Panel and the British Home Office approved the tail-bleeding assay performed in this study. All methods were performed in accordance with the relevant guidelines and regulations. In brief, C57BL/6 mice (9 weeks old; Envigo, UK) were anaesthetized using ketamine (80 mg kg^−1) and xylazine (5 mg kg^−1) administered via intraperitoneal route 20 minutes prior to the experiment and placed on a heated pad (37 °C). […] The tail tip was placed in sterile saline at 37 °C and the time to cessation of bleeding was measured up to 20 minutes.

Assay [1] deals with outside-in signalling by integrin αIIbβ3. Description: Clot retraction assay (outside-in signalling by integrin αIIbβ3). Type of assay: cell-based, human. The settings on record: PRP; 50 μM compound; 1 U/mL thrombin; three hours. Here is the method: R represents ‘resting’ platelets.
Following fibrinogen binding, integrin αIIbβ3 triggers signalling into the platelets in order to induce clot retraction and promote wound healing. This also represents a late downstream signalling event in the platelet activation process. To determine whether chrysin and its derivatives affect outside-in signalling by integrin αIIbβ3, a clot retraction assay was performed. […] At three hours, the clot obtained with the vehicle control [0.1% (v/v) DMSO] retracted to around 50 mg.
PRP (200 µL) was mixed with 5 µL of red blood cells and the final volume was made to 950 µL with modified Tyrodes-HEPES buffer in the presence and absence of various concentrations of chrysin or its synthetic derivatives. Clot formation was initiated by adding 1 U/mL (50 µL) thrombin. A glass capillary was placed in middle of the tube and the clot retraction was observed over a period of 3 hours at room temperature. Clot weight was measured as a marker for clot retraction after 3 hours.

Assay [2] relates to α-granule secretion in platelets. In words: P-selectin exposure by flow cytometry (marker for α-granule secretion). It is filed as cell-based, human. The following applies: PRP, CRP-XL 0.5 μg/mL. Here is the method: Platelets primarily contain two types of granules (α- and dense granules) and the activation of platelets releases the granule contents to the external environment, where they play important roles in the stimulation of additional platelets and their recruitment to the growing thrombus. […] However, chrysin affected α-granule secretion only at a minimum concentration of 50 μM in platelets.
Figure 5 Chrysin and its derivatives affect granule secretion in platelets. […] The level of P-selectin (as a marker for α-granule secretion) was quantified using PECy5-labelled anti-human P-selectin antibodies by flow cytometry. […] R represents ‘resting’ platelets. […] Platelets were then activated with 0.5 μg/mL CRP-XL and the ATP release was monitored for 5 minutes by lumi-aggregometry. The traces shown are representative of three separate experiments.
Background: In flow cytometry, cells or beads pass a laser one at a time.

Another assay has as its system Src. Description: Immunoblot of Src phosphorylation at Y527 in CRP-XL activated platelets. Type of assay: cell-based, human. The following applies: washed platelets, CRP-XL 0.5 μg/mL. An excerpt: The calcium traces (Ai and Bi) shown are representative of three separate experiments. […] The platelets were lysed and used for immunoblot analysis to detect the level of AKT phosphorylation at residue S473, FAK phosphorylation at Y397 and phosphorylation of Src at Y527. The level of 14-3-3ζ protein was detected as a loading control. The cropped images of the blots shown here are representative of three separate experiments. The uncropped full length blots are presented in Supplementary Information (Figure S8).
Calcium mobilisation is associated with phosphoinositide 3-kinase (PI3K) signalling in platelets. Protein kinase B (AKT) is a downstream effector of PI3K and a key marker for the PI3K/AKT signalling pathway. […]
The preparation of human platelets and aggregation assays were performed using standard protocols as described by us previously, [16]. Briefly, human blood was collected in 3.2% citrate containing vacutainers via venepuncture from healthy, aspirin-free individuals with informed consent in accordance with the methods approved by the University of Reading Research Ethics Committee. […] Dense granule secretion in platelets was determined by measuring the ATP release using the luciferin-luciferase reagent by lumi-aggregometry (Chrono-Log, USA). […]

As to `O=c1cc(-c2ccccc2)oc2cc(O)cc(O)c12` [chrysin], the “reduction in CRP-XL-induced platelet aggregation” value with human washed platelets (6.25 μM compound) is “approximately 80%”. Besides, the “effect on CRP-XL-induced platelet aggregation in washed platelets” value with human washed platelets was “inhibited CRP-XL (0.5 μg/mL)-induced aggregation in washed platelets in a concentration-dependent manner”. The “bleeding time (average)” value in the assay on haemostasis in mice was 901 s. Also, in assay [1], the “effect on clot retraction” value is recorded as “did not show significant effects”. Further, in assay [2], the “concentrations that significantly inhibit α-granule secretion” value was at least 50 µM. Moreover, the “effect on dephosphorylation of Src at Y527” value in the assay with Src is on record as “significant impact on the dephosphorylation of Src at Y527”.

As to “chlorido [(5-oxo-κO)-7-hydroxy-(2-phenyl)-4H-chromen-4-thionato-κS] (η6-p-cymene)ruthenium(II) [Ru-thio-chrysin]”, in the assay on human washed platelets, the “effect on CRP-XL-induced platelet aggregation in washed platelets” value is reported as “inhibited CRP-XL-induced platelet aggregation in a concentration-dependent manner”. Besides, the “bleeding time (average)” value with haemostasis in mice stood at 1096 s. Further, the “effect on clot retraction” value in assay [1] is reported as “superior effects in comparison to native chrysin”. The “inhibition of α-granule secretion (P-selectin)” value in assay [2] (100 μM compound) is on record as “approximately 80%”. In assay [2], the “concentrations that significantly inhibit α-granule secretion” value is at least 12.5 µM. Moreover, the “effect on dephosphorylation of Src at Y527” value in the assay on Src is on record as “significant impact on the dephosphorylation of Src at Y527”.
